One data set deals with Src (Homo sapiens (Human), UniProt P12931). As to the kind of experiment: biochemical.
The nature of data set [1]: Cytotoxicity against CRL8155 cell line. Type of data set: cell-based. Particulars: human, CRL8155 cells (lymphoblast, spleen).
The target of the next data set is TgCDPK1 (Toxoplasma gondii, UniProt Q9BJF5). As to the kind of experiment: biochemical. To be noted: read-out: TgCDPK1 IC50.
For another data set, the target named is CpCDPK1 (Cryptosporidium parvum (strain Iowa II), UniProt A3FQ16). Put plainly: biochemical.
The next data set concerns T. gondii. As to the kind of experiment: Inhibition of T. gondii cell proliferation. Type of data set: cell-based. Particulars: Toxoplasma gondii; Table 3; read-out: T. gondii EC50.
The nature of a further data set: Cell toxicity in HepG2. The data set is classed as cell-based. To be noted: human, HepG2 cells (hepatocellular carcinoma); Table 4. On the procedure:
All compounds were assayed for inhibition of TgCDPK1 and CpCDPK1 and on the small-gatekeeper (Thr) human kinases, Src and Abl. Human cell toxicity was evaluated in two human cell lines, HepG2 (hepatocellular carcinoma) and CRL8155 (lymphoblast, spleen). hERG inhibition has been associated with long Q-T syndrome (cardiotoxicity), and the compounds were evaluated for hERG inhibitory activity.

The target in the next data set is Abl (Homo sapiens (Human), UniProt P00519). Put plainly: biochemical.
[2] abbreviates: Table 3, read-out: Cytotoxicity (CRL8155) EC50.
Setting [3] is: Table 1, KinaseGlo, Syntide 2 peptide substrate, read-out: CpCDPK1 IC50.
Where [4] appears, read: Table 1, KinaseGlo, Syntide 2 peptide substrate.
Where [5] appears, read: Enzyme Inhibition (IC50, μM) SrcKD, Table 4.
Where [6] appears, read: Table 4, read-out: Cell toxicity (EC50, μM) CRL 8155.

SMILES strings stand for the structures. Where two headings read alike, the source gives them in different places.

Sequence of TgCDPK1 (Q9BJF5 1-507): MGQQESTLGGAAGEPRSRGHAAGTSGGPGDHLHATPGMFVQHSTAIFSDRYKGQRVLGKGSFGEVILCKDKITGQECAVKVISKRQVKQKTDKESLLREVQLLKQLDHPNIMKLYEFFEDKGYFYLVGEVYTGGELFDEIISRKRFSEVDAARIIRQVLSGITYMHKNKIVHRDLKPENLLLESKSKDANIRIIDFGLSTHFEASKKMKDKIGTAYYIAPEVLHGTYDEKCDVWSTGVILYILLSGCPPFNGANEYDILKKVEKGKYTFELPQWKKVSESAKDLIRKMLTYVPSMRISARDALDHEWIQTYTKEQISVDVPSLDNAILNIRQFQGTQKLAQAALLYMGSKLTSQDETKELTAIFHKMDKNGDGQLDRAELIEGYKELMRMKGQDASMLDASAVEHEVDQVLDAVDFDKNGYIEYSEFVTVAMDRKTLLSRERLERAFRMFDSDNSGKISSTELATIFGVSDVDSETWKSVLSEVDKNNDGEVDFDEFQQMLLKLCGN
Sequence of CpCDPK1 (A3FQ16 1-538): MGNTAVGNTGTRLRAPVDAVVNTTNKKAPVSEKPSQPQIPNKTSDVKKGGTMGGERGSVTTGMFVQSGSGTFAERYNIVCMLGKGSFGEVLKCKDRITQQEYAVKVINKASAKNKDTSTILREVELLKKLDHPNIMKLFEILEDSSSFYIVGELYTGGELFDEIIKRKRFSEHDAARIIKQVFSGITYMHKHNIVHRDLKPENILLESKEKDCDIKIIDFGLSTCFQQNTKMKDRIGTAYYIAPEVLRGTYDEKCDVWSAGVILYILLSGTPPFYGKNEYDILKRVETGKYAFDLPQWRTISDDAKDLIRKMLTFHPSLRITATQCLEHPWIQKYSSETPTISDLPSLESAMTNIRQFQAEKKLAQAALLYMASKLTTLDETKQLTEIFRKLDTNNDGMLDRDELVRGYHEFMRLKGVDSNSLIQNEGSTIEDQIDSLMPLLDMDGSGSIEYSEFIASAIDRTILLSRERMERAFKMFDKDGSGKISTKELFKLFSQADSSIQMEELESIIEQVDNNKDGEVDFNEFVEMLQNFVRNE
Sequence of Src (P12931 270-523): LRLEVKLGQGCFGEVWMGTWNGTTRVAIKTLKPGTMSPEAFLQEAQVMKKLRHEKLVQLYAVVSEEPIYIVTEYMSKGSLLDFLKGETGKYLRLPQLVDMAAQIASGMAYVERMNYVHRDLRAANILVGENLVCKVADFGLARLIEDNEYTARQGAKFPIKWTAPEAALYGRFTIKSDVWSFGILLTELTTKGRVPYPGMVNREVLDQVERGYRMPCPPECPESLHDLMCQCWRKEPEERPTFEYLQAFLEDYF
Sequence of Abl (P00519 242-493): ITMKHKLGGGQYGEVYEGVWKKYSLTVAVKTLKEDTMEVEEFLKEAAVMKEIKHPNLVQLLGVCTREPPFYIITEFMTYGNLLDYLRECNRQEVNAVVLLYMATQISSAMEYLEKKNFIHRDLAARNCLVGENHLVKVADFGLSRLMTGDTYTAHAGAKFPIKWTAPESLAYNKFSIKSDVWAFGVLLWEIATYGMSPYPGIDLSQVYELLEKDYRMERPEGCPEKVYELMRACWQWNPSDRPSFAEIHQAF

In general, IC50 refers to the concentration that inhibits the measured activity by half. The EC50 is the concentration needed to bring the measured effect to its halfway point. Regarding `CCOc1ccc2cc(-c3nn(C4CCC4)c(N)c3C(N)=O)cnc2c1` [Compound 1652], the concentration for half-maximal inhibition (IC50) against Src is above 10 µM. In data set [1] (setting [2]), the EC50 was above 40 µM.
With `CC(C)(C)n1nc(-c2cnc3ccccc3c2)c(C(N)=O)c1N` [Compound 38, 5-amino-1-(tert-butyl)-3-(quinolin-3-yl)-1H-pyrazole-4-carboxamide], the concentration for half-maximal inhibition (IC50) on Src (Src IC50 (μM), Table 2) was above 10 µM; at TgCDPK1, 6 nM; on CpCDPK1 (setting [3]) it was 0.007 µM. For the same compound, in data set [1] (Table 2, read-out: Cytotoxicity (CRL8155) EC50), the concentration giving a half-maximal response (EC50) is above 40 µM.
On to `CCOc1ccc2cc(-c3nn(CC4CC4)c(N)c3C(N)=O)ccc2n1` [Compound 1635, 5-amino-1-(cyclopropylmethyl)-3-(2-ethoxyquinolin-6-yl)-1H-pyrazole-4-carboxamide], for which the IC50 against Src (Src IC50 (μM), Table 3) is above 10 µM; on TgCDPK1 (setting [4]) it was 6 nM; at CpCDPK1 (setting [3]), 0.003 µM. Further, in data set [1] (setting [2]), the half-maximal effective concentration (EC50) is above 40 µM.
In the case of `NC(=O)c1c(-c2ccc3nc(OC4CCC4)ccc3c2)nn(C2CCC2)c1N` [Compound 1656, 5-amino-3-(2-cyclobutoxyquinolin-6-yl)-1-cyclobutyl-1H-pyrazole-4-carboxamide], the concentration for a half-maximal effect (EC50) in the data set on T. gondii was 69 nM; in data set [1] (setting [2]), above 40 µM. For the same compound, the IC50 against Src was above 10 µM; at TgCDPK1 (setting [4]), 7 nM.
Consider `CC(C)(C)n1nc(-c2ccc3nc(OC4CCC4)ccc3c2)c(C(N)=O)c1N` [Compound 1639, 5-amino-1-(tert-butyl)-3-(2-cyclobutoxyquinolin-6-yl)-1H-pyrazole-4-carboxamide], for which the IC50 at Src (Src IC50 (μM), Table 3) is above 10 µM; at TgCDPK1 (setting [4]), 5 nM; on CpCDPK1 (setting [3]) it was 0.006 µM. For the same compound, the EC50 in data set [1] (setting [2]) was above 40 µM.
Take `CCCOc1ccc2cc(-c3nn(C(C)(C)C)c(N)c3C(N)=O)cnc2c1` [Compound 1566, 5-amino-1-tert-butyl-3-(7-propoxyquinolin-3-yl)-1H-pyrazole-4-carboxamide]: the EC50 in “Cell toxicity in HepG2” is above 40 µM; in data set [1] (setting [2]) it was above 40 µM; in data set [1] (setting [6]) it was 16 µM. Further, the IC50 is above 10 µM on Src (setting [5]); above 10 µM at Src (Src IC50 (μM), Table 3); above 10 µM on Abl.
Regarding `CC(C)Oc1ccc2cc(-c3nn(C(C)(C)C)c(N)c3C(N)=O)cnc2c1` [Compound 1569, 5-amino-1-(tert-butyl)-3-(7-isopropoxyquinolin-3-yl)-1H-pyrazole-4-carboxamide], the IC50 on CpCDPK1 (setting [3]) turned out to be 0.005 µM. For the same compound, in data set [1] (setting [2]), the EC50 was above 40 µM.
Take `CC(C)(C)n1nc(-c2cnc3cc(F)ccc3c2)c(C(N)=O)c1N` [Compound 1545, 5-amino-1-tert-butyl-3-(7-fluoroquinolin-3-yl)-1H-pyrazole-4-carboxamide]: at Src (Src IC50 (μM), Table 3), the half-inhibitory concentration (IC50) was above 30 µM. Further, in data set [1] (setting [2]), the EC50 is above 40 µM.
`CC(C)(CO)Cn1nc(-c2cnc3cc(OC4CCC4)ccc3c2)c(C(N)=O)c1N` [Compound 1644, 5-amino-3-(7-cyclobutoxyquinolin-3-yl)-1-(3-hydroxy-2,2-dimethylpropyl)-1H-pyrazole-4-carboxamide]: the EC50 was 770 nM with T. gondii and above 40 µM in data set [1] (setting [2]). In addition, the results for the half-maximal inhibitory concentration (IC50) against Src, on TgCDPK1 (setting [4]) and at CpCDPK1 (setting [3]) were above 10 µM, 12 nM and 0.005 µM, respectively.
As to `CC(C)(CO)Cn1nc(-c2ccc3nc(OC4CCC4)ccc3c2)c(C(N)=O)c1N` [Compound 1645, 5-amino-3-(2-cyclobutoxyquinolin-6-yl)-1-(3-hydroxy-2,2-dimethylpropyl)-1H-pyrazole-4-carboxamide], the values for the EC50 (in the data set with T. gondii; in data set [1] (setting [2])) were 480 nM and above 40 µM, respectively. For the same compound, the IC50 on Src (Src IC50 (μM), Table 3) was above 10 µM; on CpCDPK1 (setting [3]), 0.005 µM.
On Src (Src IC50 (μM), Table 3), `CCOc1ccc2cc(-c3nn(CC(C)(C)CO)c(N)c3C(N)=O)cnc2c1` [Compound 1596, 5-amino-3-(7-ethoxyquinolin-3-yl)-1-(3-hydroxy-2,2-dimethylpropyl)-1H-pyrazole-4-carboxamide] displayed an IC50 above 10 µM. In addition, in data set [1] (setting [2]), the EC50 was above 40 µM.
Regarding `CCOc1ccc2cc(-c3nn(CC4CC4)c(N)c3C(N)=O)cnc2c1` [Compound 1598, 5-amino-1-(cyclopropylmethyl)-3-(7-ethoxyquinolin-3-yl)-1H-pyrazole-4-carboxamide], the half-inhibitory concentration (IC50) was above 10 µM against Src (Src IC50 (μM), Table 3); 12 nM on TgCDPK1 (setting [4]); 0.005 µM on CpCDPK1 (setting [3]). Also, the 50% effective concentration (EC50) in data set [1] (setting [2]) was above 40 µM.
As for `NC(=O)c1c(-c2cnc3cc(OC4CCC4)ccc3c2)nn(C2CCCC2)c1N` [Compound 1658, 5-amino-3-(7-cyclobutoxyquinolin-3-yl)-1-cyclopentyl-1H-pyrazole-4-carboxamide], the EC50 with T. gondii was 400 nM; in data set [1] (setting [2]), above 40 µM. The IC50 at Src is above 10 µM; on TgCDPK1 (setting [4]), 12 nM; on CpCDPK1 (setting [3]), 0.004 µM.
As for `COc1ccc2cc(-c3nn(C(C)(C)C)c(N)c3C(N)=O)cnc2c1` [Compound 1543, 5-amino-1-tert-butyl-3-(7-methoxyquinolin-3-yl)-1H-pyrazole-4-carboxamide], the half-maximal effective concentration (EC50) (in the data set “Cell toxicity in HepG2”; in data set [1] (setting [2]); in data set [1] (setting [6])) was above 40 µM in each case. Moreover, the half-maximal inhibitory concentration (IC50) against Src (setting [5]) was above 10 µM; against Src (Src IC50 (μM), Table 3) it was above 30 µM; at CpCDPK1 (setting [3]), 0.003 µM; at CpCDPK1 (Table 4, read-out: Enzyme Inhibition (IC50, μM) Cp CDPK1), 0.003 µM; on Abl, above 10 µM.
Take `NC(=O)c1c(-c2cnc3cc(OC4CCC4)ccc3c2)nn(C2CCC2)c1N` [Compound 1657, 5-amino-3-(7-cyclobutoxyquinolin-3-yl)-1-cyclobutyl-1H-pyrazole-4-carboxamide]: the concentration giving a half-maximal response (EC50) in the data set on T. gondii is 690 nM; in data set [1] (setting [2]), above 40 µM. Besides, the IC50 is above 10 µM on Src and 12 nM at TgCDPK1 (setting [4]).
Consider `CC(C)(C)n1nc(-c2ccc3nc(OC4CC4)ccc3c2)c(C(N)=O)c1N` [Compound 1643, 5-amino-1-(tert-butyl)-3-(2-cyclopropoxyquinolin-6-yl)-1H-pyrazole-4-carboxamide], for which the IC50 on Src (Src IC50 (μM), Table 3) is above 10 µM; at TgCDPK1 (setting [4]), 5.7 nM; on CpCDPK1 (setting [3]), 0.003 µM. In addition, the concentration for a half-maximal effect (EC50) in data set [1] (setting [2]) was above 40 µM.
For `CCOc1ccc2cc(-c3nn(C(C)C)c(N)c3C(N)=O)cnc2c1` [Compound 1572, 5-amino-3-(7-ethoxyquinolin-3-yl)-1-isopropyl-1H-pyrazole-4-carboxamide], the concentration giving a half-maximal response (EC50) (in “Cell toxicity in HepG2”; in data set [1] (setting [6])) was above 40 µM throughout. At CpCDPK1 (setting [3]), the IC50 is 0.005 µM.
As for `CCOc1ccc2cc(-c3nn(C4CCCCCC4)c(N)c3C(N)=O)cnc2c1` [Compound 1604, 5-amino-1-cycloheptyl-3-(7-ethoxyquinolin-3-yl)-1H-pyrazole-4-carboxamide], the half-maximal inhibitory concentration (IC50) at Src (Src IC50 (μM), Table 3) is above 10 µM; at CpCDPK1 (setting [3]) it was 0.002 µM. The EC50 in data set [1] (setting [2]) is above 40 µM.
For the compound `NC(=O)c1c(-c2cnc3cc(OC4CCC4)ccc3c2)nn(C2CCCCC2)c1N` [Compound 1647, 5-amino-3-(7-cyclobutoxyquinolin-3-yl)-1-cyclohexyl-1H-pyrazole-4-carboxamide], the EC50 was 1140 nM in the data set with T. gondii and above 40 µM in data set [1] (setting [2]). In addition, the IC50 is above 10 µM against Src, 19 nM at TgCDPK1 (setting [4]) and 0.008 µM on CpCDPK1 (setting [3]).
Turning to `NC(=O)c1c(-c2ccc3nc(OC4CCC4)ccc3c2)nn(C2CCCC2)c1N` [Compound 1653, 5-amino-3-(2-cyclobutoxyquinolin-6-yl)-1-cyclopentyl-1H-pyrazole-4-carboxamide], the values for the EC50 (with T. gondii; in data set [1] (setting [2])) were 210 nM and above 40 µM, respectively. The results for the IC50 against Src, on TgCDPK1 (setting [4]) and on CpCDPK1 (setting [3]) were above 10 µM, 12 nM and 0.006 µM, respectively.
For the compound `CCOc1ccc2cc(-c3nn(C4CCCCC4)c(N)c3C(N)=O)ccc2n1` [Compound 1633, 5-amino-1-cyclohexyl-3-(2-ethoxyquinolin-6-yl)-1H-pyrazole-4-carboxamide], the IC50 on Src (Src IC50 (μM), Table 3) was above 10 µM; at TgCDPK1 (setting [4]), 4 nM; on CpCDPK1 (setting [3]), 0.002 µM. Also, the EC50 in data set [1] (setting [2]) was above 40 µM.
As to `CCOc1ccc2cc(-c3nn(C4CCCC4)c(N)c3C(N)=O)cnc2c1` [Compound 1605, 5-amino-1-cyclopentyl-3-(7-ethoxyquinolin-3-yl)-1H-pyrazole-4-carboxamide], the IC50 at Src (Src IC50 (μM), Table 3) was above 10 µM; at CpCDPK1 (setting [3]), 0.004 µM. Also, in data set [1] (setting [2]), the concentration giving a half-maximal response (EC50) was above 40 µM.
On to `CCOc1ccc2cc(-c3nn(C(C)(C)C)c(N)c3C(N)=O)ccc2n1` [Compound 1597, 5-amino-1-(tert-butyl)-3-(2-ethoxyquinolin-6-yl)-1H-pyrazole-4-carboxamide], for which the concentration for half-maximal inhibition (IC50) was above 10 µM against Src (Src IC50 (μM), Table 3) and 0.003 µM on CpCDPK1 (setting [3]). The concentration giving a half-maximal response (EC50) in data set [1] (setting [2]) is above 40 µM.
On to `NC(=O)c1c(-c2ccc3nc(OC4CCC4)ccc3c2)nn(C2CCCCC2)c1N` [Compound 1646, 5-amino-3-(2-cyclobutoxyquinolin-6-yl)-1-cyclohexyl-1H-pyrazole-4-carboxamide], for which the values for the EC50 (with T. gondii; in data set [1] (setting [2])) were 310 nM and above 40 µM, respectively. Further, the values for the IC50 against Src, at TgCDPK1 (setting [4]) and on CpCDPK1 (setting [3]) were above 10 µM, 16 nM and 0.013 µM, respectively.

Values taken from patent US9518026B2, “5-aminopyrazole-4-carboxamide inhibitors of CDPK1 from T. gondii and C. parvum” (UNIVERSITY OF WASHINGTON THROUGH ITS CENTER FOR …, priority 2013, dated 2016).
